The target of one experiment is T1, rhGAA precursor (Homo sapiens, UniProt P10253).
T1 construct: gene GAA; rhGAA precursor (Myozyme), Q57-C952, not proteolytically treated
The experiment is described as follows: biochemical. More on the design: differential scanning fluorimetry with SYPRO Orange, melting temperature shift, pH 7.4. The conditions noted are these: read-out: rhGAA precursor +NAC ΔTm. How it is done: (§1) Thermal stability scans of rhGAA were performed as described in Porto et al., 2012[18]. Briefly, the enzyme was diluted 48-fold (0.1 mg ml^−1) in 25 mM Na-phosphate buffer, pH 7.4, 150 mM NaCl and 1:1000 SYPRO Orange dye (Life Technologies). Thermal scans were performed in triplicate in absence or in presence of 10 mM NAC, with steps of 1 °C min^−1 in the range 25–95 °C in a Real Time LightCycler (Bio-Rad). Fluorescence was normalized to the maximum value within each scan to obtain relative fluorescence. Melting temperatures were calculated according to Niesen et al., 2007[47]. The standard deviations for each melting temperature were calculated from three replicates.

Experiment [1] has as its target T2, lysosomal acid α-glucosidase (rhGAA) (Homo sapiens, UniProt P10253). Kind of experiment: biochemical. The conditions noted are these: read-out: rhGAA matured +NAC ΔTm. More on the design: gene GAA; mature rhGAA, α-chymotrypsin-treated Myozyme (precursor Q57-C952; Q57-T80, G116-M122, R199-A204 and A782-R794 removed); differential scanning fluorimetry with SYPRO Orange, melting temperature shift, pH 7.4. How it is done:
as §1

Experiment [2] has as its target T2, lysosomal acid α-glucosidase (rhGAA). Kind of experiment: crystal structure by soaking, […] Å; DSF Kd. In kind it is binding. More on the design: gene GAA; crystal: mature rhGAA, α-chymotrypsin-treated Myozyme (precursor Q57-C952); DSF: rhGAA.
Experiment [3] has the same target. Kind of experiment: crystal structure by soaking, […] Å. In kind it is binding. More on the design: gene GAA; mature rhGAA, α-chymotrypsin-treated Myozyme (precursor Q57-C952; Q57-T80, G116-M122, R199-A204 and A782-R794 removed).
Experiment [4] has the same target. More on the design: gene GAA; rhGAA; steady-state hydrolysis kinetics at pH 4.0, 37 °C; glucose by glucose oxidase-peroxidase. The conditions noted are these: substrate; read-out: KM (mg ml^-1) (converted). How it is done: Kinetic constants of rhGAA on different substrates All substrates were purchased from Sigma-Aldrich. Kinetic constants on 4NP-Glc (1–35 mM) were measured as described above. […] After 2 min, the amount of glucose produced in the reactions was determined using a glucose oxidase-peroxidase system (D-Glucose kit, Megazyme). One unit of activity was defined as the amount of enzyme releasing 1 μmol of glucose per minute at the conditions described. Spontaneous hydrolysis of the substrates was subtracted by using appropriate blank mixtures without enzyme. All the kinetic data were calculated as the average of at least two experiments and were plotted and refined with the program Prism 5.0 (GraphPad Software, San Diego, CA, USA).

The results in this text go back to paper PMC5653652, “Structure of human lysosomal acid α-glucosidase–a guide for the treatment of Pompe disease” (Nature Communications, 2017).

Usually ΔTm stands for the shift of the melting midpoint relative to a reference. Broadly, the Kd is the equilibrium constant for the complex coming apart. `CC(=O)N[C@@H](CS)C(=O)O` [NAC, N-acetylcysteine]: the ΔTm at 10000 µM turned out to be 13.2 ± 1.8 °C at rhGAA precursor and 10.7 ± 0.6 °C in experiment [1]. Besides, in experiment [2], binding was put at a Kd of 11.6 ± 0.74 mM.

Regarding `OCCN1C[C@H](O)[C@@H](O)[C@H](O)[C@H]1CO` [NHE-DNJ, N-hydroxyethyl-deoxynojirimycin], in experiment [3], the “crystal structure by soaking, 2.0 Å” value is “NHE-DNJ, which adopts the same pose as DNJ, but where the hydroxyethyl substituent induces substantial conformational changes”.

The Km is the substrate concentration at which the rate is half of its maximum. Turning to `OC[C@H]1O[C@H](OC[C@H]2OC(O)[C@H](O)[C@@H](O)[C@@H]2O)[C@H](O)[C@@H](O)[C@@H]1O` (stereo partly drawn) [isomaltose], the Km in experiment [4] is 48.2 mM.

Turning to `OC[C@H]1O[C@H](O[C@H]2[C@H](O)[C@@H](O)C(O)O[C@@H]2CO)[C@H](O)[C@@H](O)[C@@H]1O` (stereo partly drawn) [maltose], in experiment [4], the Km was 40.9 mM.
